Laboratory results as given in patent US9994865B2, “PEG-Prom mediated surface expression of avidin/streptavidin” (The Johns Hopkins University, priority 2013, dated 2018).

What was measured:
[1] = tested on: avidin-expressing and non-expressing tumor cells; settings: expected outcome; LD50 against expressing vs. non-expressing cells
Description: The LD50 against avidin-expressing and non-expressing tumor cells of each will be evaluated, in vitro. The maximum tolerated dose and anti-tumor efficacy of each will also be evaluated in PCa models. […] Upon necropsy, tumor xenografts will be pathologically analyzed to evaluate cell killing. […] Tumor size will be measured with calipers, or with BLI in the case of g- or fLuc-expressing cells.

[2] = tested on: tumors and metastases; settings: prior studies, adenovirus-based oncolytic gene delivery, nude mice; cited from earlier work

Molecule | specificity of cell killing to avidin expressing cells [1] | effect on tumors and metastases [2]
^213Bi-CHX-A-DTPA-biotin [^213Bi conjugate] | highly specific to expressing cells | 
^90Y-CHX-A-DTPA-biotin [^90Y conjugate] | less specific to avidin expressing cells | 
MDA-7/IL-24: melanoma differentiation associated gene-7/Interleukin-24, immunomodulatory cytokine, delivered by adenovirus (protein, UniProt Q13007 52-206, looked up, adenovirus-delivered, melanoma differentiation associated gene-7/Interleukin-24, immunomodulatory cytokine, delivered by adenovirus) Interleukin-24: QEFHFGPCQVKGVVPQKLWEAFWAVKDTMQAQDNITSARLLQQEVLQNVSDAESCYLVHTLLEFYLKTVFKNYHNRTVEVRTLKSFSTLANNFVLIVSQLQPSQENEMFSIRDSAHRRFLLFRRAFKQLDVEAALTKALGEVDILLTWMQKFYKL |  | complete eradication of tumors and metastases
